Assay results reported in US9085555B2, “Complement pathway modulators and uses thereof” (priority 2011, dated 2015).
Where two headings read alike, the source gives them in different places.

Biological target: Factor D (Homo sapiens (Human), UniProt P00746)
Test: biochemical
Assay type: biochemical

Chain of Factor D (P00746 26-253): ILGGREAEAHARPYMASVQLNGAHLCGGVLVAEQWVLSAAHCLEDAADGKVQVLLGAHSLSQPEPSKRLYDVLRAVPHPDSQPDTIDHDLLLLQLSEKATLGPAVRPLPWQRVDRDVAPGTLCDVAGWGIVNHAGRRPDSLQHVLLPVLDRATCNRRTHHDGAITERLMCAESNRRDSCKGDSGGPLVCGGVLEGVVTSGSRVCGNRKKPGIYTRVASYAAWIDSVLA

SMILES: CC(=O)c1cn(CC(=O)N2C[C@H](F)C[C@H]2C(=O)Nc2cccc(OC(F)(F)F)c2F)c2ccccc12 [Example 514, (2S,4R)-1-[2-(3-Actyl-indol-1-yl)-acetyl]-4-fluoro-pyrrolidine-2-carboxylic acid (2-fluoro-3-trifluoromethoxy-phenyl)-amide]
- IC50 (read-out: IC50): 0.095 µM

SMILES: CN(C)C[C@@H](NC(=O)[C@@H]1C[C@H]2C[C@H]2N1C(=O)Cc1cn(C(N)=O)c2ccccc12)c1cccc(Cl)c1F [Example 458, 3-(2-{(1R,3S,5R)-3-[(S)-1-(3-Chloro-2-fluoro-phenyl)-2-dimethylamino-ethylcarbamoyl]-2-aza-bicyclo[3.1.0]hex-2-yl}-2-oxo-ethyl)-indole-1-carboxylic acid amide]
- IC50 (read-out: IC50): 0.169 µM

SMILES: NC(=O)n1cc(NC(=O)N2C[C@@H](N)C[C@H]2C(=O)NCc2cc(Cl)cc(Cl)c2)c2ccccc21 [Example 60, (2S,4S)-4-Amino-pyrrolidine-1,2-dicarboxylic acid 1-[(1-carbamoyl-1H-indol-3-yl)-amide] 2-(3,5-dichloro-benzylamide)]
- IC50 (read-out: IC50): 0.8 µM

SMILES: CN(C)[C@@H]1CN(C(=O)Nc2cn(C(N)=O)c3ccccc23)[C@H](C(=O)NCc2cccc(Cl)c2F)[C@H]1F [Example 189, (2R,3S,4R)-4-Dimethylamino-3-fluoro-pyrrolidine-1,2-dicarboxylic acid 1-[(1-carbamoyl-1H-indol-3-yl)-amide] 2-(3-chloro-2-fluoro-benzylamide)]
- IC50 (read-out: IC50): 0.942 µM

SMILES: N#Cc1cccc(CNC(=O)[C@@H]2C[C@H](N)CN2C(=O)Nc2cn(C(N)=O)c3ccccc23)c1 [Example 33, (2S,4S)-4-Amino-pyrrolidine-1,2-dicarboxylic acid 1-[(1-carbamoyl-1H-indol-3-yl)-amide] 2-(3-cyano-benzylamide)]
- IC50 (read-out: IC50): 24.1 µM

SMILES: NC(=O)n1cc(NC(=O)N2CCS[C@H]2C(=O)Nc2cccc(OC(F)(F)F)c2)c2ccccc21 [Example 267, (S)-Thiazolidine-2,3-dicarboxylic acid 3-[(1-carbamoyl-1H-indol-3-yl)-amide] 2-[(3-trifluoromethoxy-phenyl)-amide]]
- IC50 (read-out: IC50): 0.083 µM

SMILES: NC(=O)n1cc(NC(=O)N2C[C@@H](N)C[C@H]2C(=O)NCc2cccc(Cl)c2)c2ccccc21 [Example 29, (2S,4S)-4-Amino-pyrrolidine-1,2-dicarboxylic acid 1-[(1-carbamoyl-1H-indol-3-yl)-amide] 2-(3-chloro-benzylamide)]
- IC50 (read-out: IC50): 0.588 µM

SMILES: [2H]C([2H])([2H])C(=O)c1cn(CC(=O)N2C[C@H](F)[C@@H](OC)[C@H]2C(=O)NCc2cccc(Cl)c2F)c2ccccc12 [Example 619, (2S,3S,4S)-1-[2-(3-Acetyl-d3-indol-1-yl)-acetyl]-4-fluoro-3-methoxy-pyrrolidine-2-carboxylic acid 3-chloro-2-fluoro-benzylamide]
- IC50: 0.014 µM

SMILES: COc1ccc2c(c1)c(C(C)=O)cn2CC(=O)N1C[C@H](F)C[C@H]1C(=O)NCc1cccc(Cl)c1F [Example 588, (2S,4R)-1-[2-(3-Acetyl-5-methoxy-indol-1-yl)-acetyl]-4-fluoro-pyrrolidine-2-carboxylic acid 3-chloro-2-fluoro-benzylamide]
- IC50 (read-out: IC50): 0.031 µM

SMILES: CC(=O)c1cn(CC(=O)N2C[C@@H]3C[C@@H]3[C@H]2C(=O)NCc2cccc(Cl)c2F)c2cnccc12 [Example 544, (1S,2S,5R)-3-[2-(3-Acetyl-pyrrolo[2,3-c]pyridin-1-yl)-acetyl]-3-aza-bicyclo[3.1.0] hexane-2-carboxylic acid 3-chloro-2-fluoro-benzylamide]
- IC50 (read-out: IC50): 1.11 µM

SMILES: NC(=O)n1cc(CC(=O)N2C[C@@](F)(CO)C[C@H]2C(=O)NCc2cccc(Cl)c2F)c2ccccc21 [Example 451, 3-{2-[(2S,4R)-2-(3-Chloro-2-fluoro-benzylcarbamoyl)-4-fluoro-4-hydroxymethyl-pyrrolidin-1-yl]-2-oxo-ethyl}-indole-1-carboxylic acid amide]
- IC50 (read-out: IC50): 0.09 µM

SMILES: CCc1cc2c(C(N)=O)nn(CC(=O)N3C[C@H](F)[C@@H](OC)[C@H]3C(=O)Nc3cccc(OC(F)(F)F)c3F)c2cn1 [Example 637, 5-Ethyl-1-{2-[(2S,3S,4S)-4-fluoro-2-(2-fluoro-3-trifluoromethoxy-phenylcarbamoyl)-3-methoxy-pyrrolidin-1-yl]-2-oxo-ethyl}-1H-pyrazolo[3,4-c]pyridine-3-carboxylic acid amide triflate]
- IC50 (read-out: IC50): 0.009 µM

SMILES: NC(=O)c1cn(CC(=O)N2C[C@H](F)C[C@H]2C(=O)NCc2cccc(Cl)c2F)c2ccc(Cl)cc12 [Example 488, 5-Chloro-1-{2-[(2S,4R)-2-(3-chloro-2-fluoro-benzylcarbamoyl)-4-fluoro-pyrrolidin-1-yl]-2-oxo-ethyl}-1H-indole-3-carboxylic acid amide]
- IC50 (read-out: IC50): 0.25 µM

SMILES: CC[C@H](C)[C@H](NC(=O)[C@@H]1C[C@@H](F)CN1C(=O)Nc1cn(C(N)=O)c2ccccc12)C(=O)OC(C)(C)C [Example 15, (2S,3S)-2-{[(2S,4R)-1-(1-Carbamoyl-1H-indol-3-ylcarbamoyl)-4-fluoro-pyrrolidine-2-carbonyl]-amino}-3-methyl-pentanoic acid tert-butyl ester]
- IC50 (read-out: IC50): 1.1 µM

SMILES: NC(=O)c1cn(CC(=O)N2C[C@H](F)[C@@H](N)[C@H]2C(=O)NCc2cccc(Cl)c2F)c2ccccc12 [Example 574, 1-{2-[(2S,3S,4S)-3-Amino-2-(3-chloro-2-fluoro-benzylcarbamoyl)-4-fluoro-pyrrolidin-1-yl]-2-oxo-ethyl}-1H-indole-3-carboxylic acid amide]
- IC50 (read-out: IC50): 0.217 µM

SMILES: COc1ccc2c(c1)c(C=O)cn2CC(=O)N1C[C@H](F)C[C@H]1C(=O)NCc1cccc(Cl)c1F [Example 560, (2S,4R)-4-Fluoro-1-[2-(3-formyl-5-methoxy-indol-1-yl)-acetyl]-pyrrolidine-2-carboxylic acid 3-chloro-2-fluoro-benzylamide]
- IC50 (read-out: IC50): 0.141 µM

SMILES: NC(=O)n1cc(NC(=O)N2CCC[C@H]2C(=O)Nc2cccc(OC(F)(F)F)c2)c2cc(O)ccc21 [Example 370, (S)-Pyrrolidine-1,2-dicarboxylic acid 1-[(1-carbamoyl-5-hydroxy-1H-indol-3-yl)-amide]2-[(3-trifluoromethoxy-phenyl)-amide]]
- IC50 (read-out: IC50): 0.095 µM

SMILES: NC(=O)n1cc(NC(=O)N2C[C@](F)(CO)C[C@H]2C(=O)NCc2cccc(Cl)c2F)c2ccccc21 [Example 356, 2S,4S)-4-Fluoro-4-hydroxymethyl-pyrrolidine-1,2-dicarboxylic acid 1-[(1-carbamoyl-1H-indol-3-yl)-amide]2-(3-chloro-2-fluoro-benzylamide]
- IC50 (read-out: IC50): 0.48 µM

SMILES: CC(=O)c1cn(CC(=O)N2[C@@H]3C[C@@H]3C[C@H]2C(=O)NCc2cccc(Cl)c2F)c2ccncc12 [Example 524, (1R,3S,5R)-2-[2-(3-Acetyl-pyrrolo[3,2-c]pyridin-1-yl)-acetyl]-2-aza-bicyclo[3.1.0]hexane-3-carboxylic acid 3-chloro-2-fluoro-benzylamide]
- IC50 (read-out: IC50): 0.064 µM

SMILES: NC(=O)n1cc(NC(=O)N2CCS[C@H]2C(=O)NCc2cccc(Cl)c2F)c2ccccc21 [Example 178, (S)-Thiazolidine-2,3-dicarboxylic acid 3-[(1-carbamoyl-1H-indol-3-yl)-amide] 2-(3-chloro-2-fluoro-benzylamide)]
- IC50 (read-out: IC50): 0.006 µM

SMILES: NC(=O)n1cc(NC(=O)N2C[C@H](F)C[C@H]2C(=O)Nc2cccc(OC(F)(F)F)c2F)c2ccccc21 [Example 274, (2S,4R)-4-Fluoro-pyrrolidine-1,2-dicarboxylic acid 1-[(1-carbamoyl-1H-indol-3-yl)-amide] 2-[(2-fluoro-3-trifluoromethoxy-phenyl)-amide]]
- IC50 (read-out: IC50): 0.014 µM
